According to patent publication US20240383852A1, “ANTI-VIRAL COMPOUNDS” (INFEX Therapeutics Limited, priority 2021, published 2024):
Counter-ions that a name gives are not always drawn.

Columns and labels:
[1] = tested on: human Hep G2 cells (ATCC HB-8065); assay: Cytotoxicity in Hep G2 cells (CellTiter-Glo); type: cell-based; details: Hep G2 cells, 100 μM test article, 24-hour exposure
SARS-CoV-2 PLpro = biological target: T1, SARS-CoV-2 PLpro (Severe acute respiratory syndrome coronavirus 2, UniProt P0DTD1); assay: biochemical; details: 60 nM papain-like protease, 50 μM Z-RLRGG-AMC, pH 7.5, 37° C.; read-out: SARS-CoV-2 PLpro IC50
T1 construct: containing 60 nM papain-like protease

| SMILES | % Cell Viability [1] [%] | IC50 (SARS-CoV-2 PLpro) [µM] |
| --- | --- | --- |
| Cc1ccc(N2CCN(C)CC2)cc1C(=O)N[C@H](C)c1cccc(-c2cnn(C)c2)c1 [Example 53, 2-Methyl-5-(4-methylpiperazin-1-yl)-N-[(1R)-1-[3-(1-methylpyrazol-4-yl)phenyl]ethyl]benzamide] | 82.4 | < 2 |
| Cc1ccc(N2CCN(C)CC2)cc1C(=O)N[C@H](C)c1ccc(-c2ccc(CO)cc2)cc1 [Example 54, N-[(1R)-1-[4-[4-(Hydroxymethyl)phenyl]phenyl]ethyl]-2-methyl-5-(4-methylpiperazin-1-yl)benzamide] | 76.0 | < 10 |
| Cc1ccc(N2CCN(C)CC2)cc1C(=O)N[C@H](C)c1cccc(-c2ccc(Cl)cc2)c1 [Example 55, N-[(1R)-1-[3-(4-Chlorophenyl)phenyl]ethyl]-2-methyl-5-(4-methylpiperazin-1-yl)benzamide] | 1.0 | < 2 |
| Cc1ccc(N2CCN(C)CC2)cc1C(=O)N[C@H](C)c1cccc(-c2ccc(CO)cc2)c1 [Example 56, N-[(1R)-1-[3-[4-(Hydroxymethyl)phenyl]phenyl]ethyl]-2-methyl-5-(4-methylpiperazin-1-yl)benzamide] | 75.1 | < 2 |
| Cc1ccc(N2C[C@H]3C[C@@H]2CN3C)cc1C(=O)N[C@H](C)c1cccc(-c2cccc(C(C)(C)O)c2)c1 [Example 57, N-[(1R)-1-[3-[3-(1-Hydroxy-1-methyl-ethyl)phenyl]phenyl]ethyl]-2-methyl-5-[(1R,4R)-5-methyl-2,5-diazabicyclo[2.2.1]heptan-2-yl]benzamide] | 0.9 | < 2 |
| Cc1ccc(N2CCN(C)CC2)cc1C(=O)N[C@H](C)c1cccc(-c2c(C)n[nH]c2C)c1 [Example 58, N-[(1R)-1-[3-(3,5-Dimethyl-1H-pyrazol-4-yl)phenyl]ethyl]-2-methyl-5-(4-methylpiperazin-1-yl)benzamide] | 86.7 | < 2 |
| Cc1ccc(N2CCN(C)CC2)cc1C(=O)N[C@H](C)c1cccc(-c2cncnc2)c1 [Example 59, 2-Methyl-5-(4-methylpiperazin-1-yl)-N-[(1R)-1-(3-pyrimidin-5-ylphenyl)ethyl]benzamide] | 86.0 | < 10 |
| Cc1ccc(N2CCN(C)CC2)cc1C(=O)N[C@H](C)c1cccc(-c2c(C)nn(C)c2C)c1 [Example 62, 2-Methyl-5-(4-methylpiperazin-1-yl)-N-[(1R)-1-[3-(1,3,5-trimethylpyrazol-4-yl)phenyl]ethyl]benzamide] | 56.6 | < 2 |
| Cc1ccc(N2CCN(C)CC2)cc1C(=O)N[C@H](C)c1cccc(-c2cnc(N)nc2)c1 [Example 63, N-[(1R)-1-[3-(2-Aminopyrimidin-5-yl)phenyl]ethyl]-2-methyl-5-(4-methylpiperazin-1-yl)benzamide] | 75.6 | < 2 |
| Cc1ccc(N2CCN(C)CC2)cc1C(=O)N[C@H](C)c1cccc(-c2nccs2)c1 [Example 65, 2-Methyl-5-(4-methylpiperazin-1-yl)-N-[(1R)-1-(3-thiazol-2-ylphenyl)ethyl]benzamide] | 77.6 | < 2 |
| Cc1ccc(N2CCN(C)CC2)cc1C(=O)N[C@H](C)c1cccc(-c2ccc(=O)[nH]c2)c1 [Example 66, 2-Methyl-5-(4-methylpiperazin-1-yl)-N-[(1R)-1-[3-(6-oxo-1,6-dihydropyridin-3-yl)phenyl]ethyl]benzamide] | 100.8 | < 2 |
| Cc1ccc(N2CCN(C)CC2)cc1C(=O)N[C@H](C)c1cccc(-c2ccc(N)nc2)c1 [Example 67, N-[(1R)-1-[3-(6-Amino-3-pyridyl)phenyl]ethyl]-2-methyl-5-(4-methylpiperazin-1-yl)benzamide] | 58.7 | < 2 |
| Cc1ccc(N2CCN(C)CC2)cc1C(=O)N[C@H](C)c1cccc(-c2cccc(CN(C)C)c2)c1 [Example 68, N-[(1R)-1-[3-[3-[(Dimethylamino)methyl]phenyl]phenyl]ethyl]-2-methyl-5-(4-methylpiperazin-1-yl)benzamide Dihydrochloride Salt] | 48.9 | < 2 |
| Cc1ccc(N2CCN(C)CC2)cc1C(=O)N[C@H](C)c1cccc(C(O)CO)c1 (stereo partly drawn) [Example 69, N-[(1R)-1-[3-(1,2-Dihydroxyethyl)phenyl]ethyl]-2-methyl-5-(4-methylpiperazin-1-yl)benzamide] | 107.0 | < 10 |
| Cc1ccc(N2CCN(C)CC2)cc1C(=O)N[C@H](C)c1cccc(-c2ccc(C(O)CO)cc2)c1 (stereo partly drawn) [Example 70, N-[(1R)-1-[3-[4-(1,2-Dihydroxyethyl)phenyl]phenyl]ethyl]-2-methyl-5-(4-methylpiperazin-1-yl)benzamide] | 59.1 | < 2 |
| Cc1ccc(N2CCN(C)CC2)cc1C(=O)N[C@H](C)c1cccc(-c2cccc(C(O)CO)c2)c1 (stereo partly drawn) [Example 71, N-[(1R)-1-[3-[3-(1,2-Dihydroxyethyl)phenyl]phenyl]ethyl]-2-methyl-5-(4-methylpiperazin-1-yl)benzamide] | 68.4 | < 2 |

| SMILES | % Cell Viability [1] [%] | IC50 (SARS-CoV-2 PLpro) [µM] |
| --- | --- | --- |
| Cc1ccc(N2CCN(C)CC2)cc1C(=O)N[C@H](C)c1cccc(-c2ccc(N3CCNCC3)cc2)c1 [Example 73, 2-Methyl-5-(4-methylpiperazin-1-yl)-N-[(1R)-1-[3-(4-piperazin-1-ylphenyl)phenyl]ethyl]benzamide dihydrochloride salt] | 0.6 | < 2 |
| Cc1ccc(N2CCN(C)CC2)cc1C(=O)N[C@H](C)c1cccc(-c2cccc(N3CCNCC3)c2)c1 [Example 74, 2-Methyl-5-(4-methylpiperazin-1-yl)-N-[(1R)-1-[3-(3-piperazin-1-ylphenyl)phenyl]ethyl]benzamide] | 0.6 | < 2 |
| CNCCN(C)C(=O)c1ccc(-c2cccc([C@@H](C)NC(=O)c3cc(N4CCN(C)CC4)ccc3C)c2)cc1 [Example 75, 2-Methyl-N-[(1R)-1-[3-[4-[methyl-[2-(methylamino)ethyl]carbamoyl]phenyl]phenyl]ethyl]-5-(4-methylpiperazin-1-yl)benzamide] | 123.6 | < 2 |
| Cc1ccc(N2CCN(C)CC2)cc1C(=O)N[C@H](C)c1cccc(-c2cccc(=O)[nH]2)c1 [Example 76, 2-Methyl-5-(4-methylpiperazin-1-yl)-N-[(1R)-1-[3-(6-oxo-1H-pyridin-2-yl)phenyl]ethyl]benzamide] | 81.2 | < 2 |
| Cc1ccc(N2CCN(C)CC2)cc1C(=O)N[C@H](C)c1cccc(-c2ccc(C3CCNCC3)cc2)c1 [Example 77, 2-Methyl-5-(4-methylpiperazin-1-yl)-N-[(1R)-1-[3-[4-(4-piperidyl)phenyl]phenyl]ethyl]benzamide] | 1.0 | < 2 |
| Cc1ccc(N2CCN(C)CC2)cc1C(=O)N[C@H](C)c1cccc(-c2ccc(CNC3CCCC3)s2)c1 [Example 78, N-[(1R)-1-[3-[5-[(Cyclopentylamino)methyl]-2-thienyl]phenyl]ethyl]-2-methyl-5-(4-methylpiperazin-1-yl)benzamide Dihydrochloride Salt] | 1.3 | < 2 |
| Cc1ccc(N2CCN(C)CC2)cc1C(=O)N[C@H](C)c1cccc(-c2ccc(CO)s2)c1 [Example 79, N-[(1R)-1-[3-[5-(Hydroxymethyl)-2-thienyl]phenyl]ethyl]-2-methyl-5-(4-methylpiperazin-1-yl)benzamide] | 52.9 | < 2 |
| Cc1ccc(N2CCN(C)CC2)cc1C(=O)N[C@H](C)c1cccc(-c2ccccc2CO)c1 [Example 80, N-[(1R)-1-[3-[2-(Hydroxymethyl)phenyl]phenyl]ethyl]-2-methyl-5-(4-methylpiperazin-1-yl)benzamide] | 79.5 | < 2 |
| Cc1ccc(N2CCN(C)CC2)cc1C(=O)N[C@H](C)c1cccc(-c2cc(CO)cc(CO)c2)c1 [Example 81, N-[(1R)-1-[3-[3,5-Bis(hydroxymethyl)phenyl]phenyl]ethyl]-2-methyl-5-(4-methylpiperazin-1-yl)benzamide] | 94.4 | < 2 |
| CNC(=O)CCc1cccc([C@@H](C)NC(=O)c2cc(N3CCN(C)CC3)ccc2C)c1 [Example 85, 2-Methyl-N-[(1R)-1-[3-[3-(methylamino)-3-oxo-propyl]phenyl]ethyl]-5-(4-methylpiperazin-1-yl)benzamide] | 85.1 | < 10 |
| Cc1ccc(N2CCN(C)CC2)cc1C(=O)N[C@H](C)c1cccc(-c2cccc(C(=O)N(C)CCN(C)C)c2)c1 [Example 86, N-[(1R)-1-[3-[3-[2-(Dimethylamino)ethyl-methyl-carbamoyl]phenyl]phenyl]ethyl]-2-methyl-5-(4-methylpiperazin-1-yl)benzamide] | 72.1 | < 2 |
| COCCNC(=O)c1cccc(-c2cccc([C@@H](C)NC(=O)c3cc(N4CCN(C)CC4)ccc3C)c2)c1 [Example 87, N-[(1R)-1-[3-[3-(2-Methoxyethylcarbamoyl)phenyl]phenyl]ethyl]-2-methyl-5-(4-methylpiperazin-1-yl)benzamide] | 74.6 | < 2 |
| Cc1ccc(N2CCN(C)CC2)cc1C(=O)N[C@H](C)c1cccc(-c2cccc(C(=O)N3CCN(C)CC3)c2)c1 [Example 88, 2-Methyl-N-[(1R)-1-[3-[3-(4-methylpiperazine-1-carbonyl)phenyl]phenyl]ethyl]-5-(4-methylpiperazin-1-yl)benzamide] | 78.8 | < 2 |
| Cc1ccc(N2CCN(C)CC2)cc1C(=O)N[C@H](C)c1cccc(-c2cccc(C(=O)NC[C@H](O)CO)c2)c1 [Example 89] | 96.2 | < 5 |
| Cc1ccc(N2CCN(C)CC2)cc1C(=O)N[C@H](C)c1cccc(-c2cccc(C(=O)NC[C@@H](O)CO)c2)c1 [Example 90] | 103.1 | < 2 |
